# Counter-ions that a name gives are not always drawn.
# Assay: Biliary excretion and bile flow after i.v. TFA-IOP (100 umol/kg) or IOP (100 in text, 104 umol/kg in tables) in rats
# Settings: rat; for dose excreted at 10 min / dose excreted at 20 min / dose excreted at 0.5 h / dose excreted at 40 min / dose excreted at 50 min / dose excreted at 1 h / dose excreted at 70 min / dose excreted at 80 min / dose excreted at 1.5 h / dose excreted at 0 h: in vivo, iv, 100 umol/kg
# Procedure: Tissues examined included liver, spleen, upper GI, lower GI, kidney, lung and heart. The length of each study was 90 minutes, during which time bile, urine and plasma samples were taken to monitor uptake and excretion. NMR relaxation rates for liver and plasma were also examined to note whether uptake of either compound might possible alter these parameters.
# [1] = i.v., period 10-0 min (pre-injection)
smiles,measurement,setting,value
"CCC(Cc1c(I)cc(I)c(NC(=O)C(F)(F)F)c1I)C(=O)O (centres unmarked) [TFA-IOP, N-trifluoroacetyl-iopanoic acid]",Bile flow,"i.v., 0-10 min",.04071 mL/min
same,Bile flow per kg b.w.,"i.v., 0-10 min",.09359 ml/min per kg b.w.
same,Bile flow per kg l.w.,"i.v., 0-10 min",3.127 ml/min per kg l.w.
same,Biliary excretion rate,"i.v., 0-10 min",.123 µmol/min
same,Biliary excretion rate per kg b.w.,"i.v., 0-10 min",.282 umoles/min per kg b.w.
same,Biliary excretion rate per kg l.w.,"i.v., 0-10 min",9.411 umoles/min per kg l.w.
same,umoles in bile sample,"i.v., 0-10 min",1.23 UMOLES
same,Bile flow,"i.v., 10-20 min",.03675 mL/min
same,Bile flow per kg b.w.,"i.v., 10-20 min",.08448 ml/min per kg b.w.
same,Bile flow per kg l.w.,"i.v., 10-20 min",2.823 ml/min per kg l.w.
same,Biliary excretion rate,"i.v., 10-20 min",.212 µmol/min
same,Biliary excretion rate per kg b.w.,"i.v., 10-20 min",.488 umoles/min per kg b.w.
same,Biliary excretion rate per kg l.w.,"i.v., 10-20 min",16.308 umoles/min per kg l.w.
same,umoles in bile sample,"i.v., 10-20 min",2.12 UMOLES
same,Bile flow,"i.v., 20-30 min",.04050 mL/min
same,Bile flow per kg b.w.,"i.v., 20-30 min",.09310 ml/min per kg b.w.
same,Bile flow per kg l.w.,"i.v., 20-30 min",3.111 ml/min per kg l.w.
same,Biliary excretion rate,"i.v., 20-30 min",.261 µmol/min
same,Biliary excretion rate per kg b.w.,"i.v., 20-30 min",.599 umoles/min per kg b.w.
same,Biliary excretion rate per kg l.w.,"i.v., 20-30 min",20.020 umoles/min per kg l.w.
same,umoles in bile sample,"i.v., 20-30 min",2.61 UMOLES
same,Bile flow,"i.v., 30-40 min",.02992 mL/min
same,Bile flow per kg b.w.,"i.v., 30-40 min",.06878 ml/min per kg b.w.
same,Bile flow per kg l.w.,"i.v., 30-40 min",2.298 ml/min per kg l.w.
same,Biliary excretion rate,"i.v., 30-40 min",.233 µmol/min
same,Biliary excretion rate per kg b.w.,"i.v., 30-40 min",.537 umoles/min per kg b.w.
same,Biliary excretion rate per kg l.w.,"i.v., 30-40 min",17.931 umoles/min per kg l.w.
same,umoles in bile sample,"i.v., 30-40 min",2.33 UMOLES
same,Bile flow,"i.v., 40-50 min",.03047 mL/min
same,Bile flow per kg b.w.,"i.v., 40-50 min",.07005 ml/min per kg b.w.
same,Bile flow per kg l.w.,"i.v., 40-50 min",2.34 ml/min per kg l.w.
same,Biliary excretion rate,"i.v., 40-50 min",.233 µmol/min
same,Biliary excretion rate per kg b.w.,"i.v., 40-50 min",.535 umoles/min per kg b.w.
same,Biliary excretion rate per kg l.w.,"i.v., 40-50 min",17.882 umoles/min per kg l.w.
same,umoles in bile sample,"i.v., 40-50 min",2.33 UMOLES
same,Bile flow,"i.v., 50-60 min",.02817 mL/min
same,Bile flow per kg b.w.,"i.v., 50-60 min",.06476 ml/min per kg b.w.
same,Bile flow per kg l.w.,"i.v., 50-60 min",2.164 ml/min per kg l.w.
same,Biliary excretion rate,"i.v., 50-60 min",.238 µmol/min
same,Biliary excretion rate per kg b.w.,"i.v., 50-60 min",.548 umoles/min per kg b.w.
same,Biliary excretion rate per kg l.w.,"i.v., 50-60 min",18.307 umoles/min per kg l.w.
same,umoles in bile sample,"i.v., 50-60 min",2.38 UMOLES
same,Bile flow,"i.v., 60-70 min",.02721 mL/min
same,Bile flow per kg b.w.,"i.v., 60-70 min",.06255 ml/min per kg b.w.
same,Bile flow per kg l.w.,"i.v., 60-70 min",2.09 ml/min per kg l.w.
same,Biliary excretion rate,"i.v., 60-70 min",.146 µmol/min
same,Biliary excretion rate per kg b.w.,"i.v., 60-70 min",.336 umoles/min per kg b.w.
same,Biliary excretion rate per kg l.w.,"i.v., 60-70 min",11.228 umoles/min per kg l.w.
same,umoles in bile sample,"i.v., 60-70 min",1.46 UMOLES
same,Bile flow,"i.v., 70-80 min",.02653 mL/min
same,Bile flow per kg b.w.,"i.v., 70-80 min",.06099 ml/min per kg b.w.
same,Bile flow per kg l.w.,"i.v., 70-80 min",2.038 ml/min per kg l.w.
same,Biliary excretion rate,"i.v., 70-80 min",.141 µmol/min
same,Biliary excretion rate per kg b.w.,"i.v., 70-80 min",.324 umoles/min per kg b.w.
same,Biliary excretion rate per kg l.w.,"i.v., 70-80 min",10.811 umoles/min per kg l.w.
same,umoles in bile sample,"i.v., 70-80 min",1.41 UMOLES
same,Bile flow,"i.v., 80-90 min",.02586 mL/min
same,Bile flow per kg b.w.,"i.v., 80-90 min",.05945 ml/min per kg b.w.
same,Bile flow per kg l.w.,"i.v., 80-90 min",1.986 ml/min per kg l.w.
same,Biliary excretion rate,"i.v., 80-90 min",.121 µmol/min
same,Biliary excretion rate per kg b.w.,"i.v., 80-90 min",.277 umoles/min per kg b.w.
same,Biliary excretion rate per kg l.w.,"i.v., 80-90 min",9.262 umoles/min per kg l.w.
same,umoles in bile sample,"i.v., 80-90 min",1.21 UMOLES
same,Bile flow,[1],.02093 mL/min
same,Bile flow per kg b.w.,[1],.04811 ml/min per kg b.w.
same,Bile flow per kg l.w.,[1],1.608 ml/min per kg l.w.
same,Biliary excretion rate,[1],.013 µmol/min
same,Biliary excretion rate per kg b.w.,[1],.031 umoles/min per kg b.w.
same,Biliary excretion rate per kg l.w.,[1],1.021 umoles/min per kg l.w.
same,umoles in bile sample,[1],.13 UMOLES
same,umoles running total in bile,"i.v., through 0-10 min",1.36 UMOLES
same,umoles running total in bile,"i.v., through 10-20 min",3.48 UMOLES
same,umoles running total in bile,"i.v., through 20-30 min",6.09 UMOLES
same,umoles running total in bile,"i.v., through 30-40 min",8.42 UMOLES
same,umoles running total in bile,"i.v., through 40-50 min",10.75 UMOLES
same,umoles running total in bile,"i.v., through 50-60 min",13.13 UMOLES
same,umoles running total in bile,"i.v., through 60-70 min",14.60 UMOLES
same,umoles running total in bile,"i.v., through 70-80 min",16.00 UMOLES
same,umoles running total in bile,"i.v., through 80-90 min",17.21 UMOLES
same,umoles running total in bile,"i.v., through period printed 10-0 min (pre-injection)",.13 UMOLES
same,rate of biliary excretion relative to IOP,"i.v., vs IOP, FIG. 8",approximately twice
same,dose excreted at 10 min,"Percentage of dose in bile sample, 0-10 min",2.82%
same,dose excreted at 20 min,"Percentage of dose in bile sample, 10-20 min",4.88%
same,dose excreted at 0.5 h,"Percentage of dose in bile sample, 20-30 min",5.99%
same,dose excreted at 40 min,"Percentage of dose in bile sample, 30-40 min",5.37%
same,dose excreted at 50 min,"Percentage of dose in bile sample, 40-50 min",5.35%
same,dose excreted at 1 h,"Percentage of dose in bile sample, 50-60 min",5.48%
same,dose excreted at 70 min,"Percentage of dose in bile sample, 60-70 min",3.36%
same,dose excreted at 80 min,"Percentage of dose in bile sample, 70-80 min",3.24%
same,dose excreted at 1.5 h,"Percentage of dose in bile sample, 80-90 min",2.77%
same,dose excreted at 0 h,"Percentage of dose in bile sample, period 10-0 min (pre-injection)",0.31%
same,dose excreted at 10 min,"Percentage of dose running total in bile, through 0-10 min",3.12%
same,dose excreted at 20 min,"Percentage of dose running total in bile, through 10-20 min",8%
same,dose excreted at 0.5 h,"Percentage of dose running total in bile, through 20-30 min",14%
same,dose excreted at 40 min,"Percentage of dose running total in bile, through 30-40 min",19.4%
same,dose excreted at 50 min,"Percentage of dose running total in bile, through 40-50 min",24.7%
same,dose excreted at 1 h,"Percentage of dose running total in bile, through 50-60 min",30.2%
same,dose excreted at 70 min,"Percentage of dose running total in bile, through 60-70 min",33.6%
same,dose excreted at 80 min,"Percentage of dose running total in bile, through 70-80 min",36.8%
same,dose excreted at 1.5 h,"Percentage of dose running total in bile, through 80-90 min",39.6%
same,dose excreted at 0 h,"Percentage of dose running total in bile, through period printed 10-0 min (pre-injection)",0.31%

# Reference: patent US5250283A, “Organic contrast agent analog and method of making same” (priority 1992, dated 1993)
